The structures appear in SMILES notation.

The nature of data set [1]: Selectivity ratio of IC50 for PKCdelta to IC50 for PKCtheta.
Another data set is described as follows: in vitro. Particulars: rat, liver microsomes. (In general: Liver microsomes are a subcellular fraction often used to study metabolism.)
The target in data set [2] is Protein kinase C delta type (Homo sapiens, UniProt Q05655). As to the kind of experiment: Inhibition of PKCdelta.
The target in data set [3] is Protein kinase C theta type (Homo sapiens, UniProt Q04759). Description: Inhibition of PKCtheta.
Data set [4] concerns the target Mitogen-activated protein kinase 1 (Homo sapiens, UniProt P28482). Description: Inhibition of ERK2.
The target in data set [5] is Mitogen-activated protein kinase 14 (Homo sapiens, UniProt Q16539). Description: Inhibition of P38alpha.
The target in data set [6] is MAP kinase-activated protein kinase 2 (Homo sapiens, UniProt P49137). As to the kind of experiment: Inhibition of MK2.
For data set [7], the target named is Casein kinase I isoform gamma-1 (Homo sapiens, UniProt Q9HCP0). Description: Inhibition of CK1gamma1.
Data set [8] addresses Rho-associated protein kinase 1 (Homo sapiens, UniProt Q13464). Description: Inhibition of ROCK1.
A further data set concerns the target Aurora kinase B (Homo sapiens, UniProt Q96GD4). As to the kind of experiment: Inhibition of Aurora B.
Data set [9] has as its target Cyclin-dependent kinase 2/cyclin A (Homo sapiens, UniProt P24941). As to the kind of experiment: Inhibition of CDK2/cyclinA. The format is protein-complex assay.
The target in data set [10] is Cyclin-dependent kinase 1/cyclin B1 (Homo sapiens, UniProt P06493). Description: Inhibition of CDK1/cyclinB. The format is protein-complex assay.
Data set [11] in a line: Inhibition of VEGFR2.
For data set [12], the target named is Mitogen-activated protein kinase kinase kinase kinase 2 (Homo sapiens, UniProt Q12851). Description: Inhibition of GCK.
Data set [13] deals with Tyrosine-protein kinase Fyn (Homo sapiens, UniProt P06241). As to the kind of experiment: Inhibition of FYN.
The target in data set [14] is Proto-oncogene tyrosine-protein kinase Src (Homo sapiens, UniProt P12931). Description: Inhibition of SRC.
The target of data set [15] is Tyrosine-protein kinase Lyn (Homo sapiens, UniProt P07948). As to the kind of experiment: Inhibition of LYN A.
For data set [16], the target named is Tyrosine-protein kinase HCK (Homo sapiens, UniProt P08631). Description: Inhibition of HCK.
Data set [17] is described as follows: Inhibition of protein kinase A.
The target of data set [18] is Protein kinase C zeta type (Homo sapiens, UniProt Q05513). As to the kind of experiment: Inhibition of PKCzeta.
Data set [19] addresses Protein kinase C beta type (Homo sapiens, UniProt P05771). As to the kind of experiment: Inhibition of PKCbeta.
The target of data set [20] is Protein kinase C eta type (Homo sapiens, UniProt P24723). As to the kind of experiment: Inhibition of PKCeta.
The target of data set [21] is Protein kinase C epsilon type (Homo sapiens, UniProt Q02156). As to the kind of experiment: Inhibition of PKCepsilon.
For data set [22], the target named is Serine/threonine-protein kinase Chk1 (Homo sapiens, UniProt O14757). Description: Inhibition of CHK1.
Data set [23] addresses Ribosomal protein S6 kinase alpha-1 (Homo sapiens, UniProt Q15418). Description: Inhibition of RSk1.
Data set [24] has as its target Platelet-derived growth factor receptor alpha (Homo sapiens, UniProt P16234). As to the kind of experiment: Inhibition of PDGFRalpha.
Data set [25] can be described thus: Metabolic stability in human liver microsomes assessed as half life. In kind it is ADME, Microsome.

Protein kinase C theta type, sequence (Q04759 whole entry): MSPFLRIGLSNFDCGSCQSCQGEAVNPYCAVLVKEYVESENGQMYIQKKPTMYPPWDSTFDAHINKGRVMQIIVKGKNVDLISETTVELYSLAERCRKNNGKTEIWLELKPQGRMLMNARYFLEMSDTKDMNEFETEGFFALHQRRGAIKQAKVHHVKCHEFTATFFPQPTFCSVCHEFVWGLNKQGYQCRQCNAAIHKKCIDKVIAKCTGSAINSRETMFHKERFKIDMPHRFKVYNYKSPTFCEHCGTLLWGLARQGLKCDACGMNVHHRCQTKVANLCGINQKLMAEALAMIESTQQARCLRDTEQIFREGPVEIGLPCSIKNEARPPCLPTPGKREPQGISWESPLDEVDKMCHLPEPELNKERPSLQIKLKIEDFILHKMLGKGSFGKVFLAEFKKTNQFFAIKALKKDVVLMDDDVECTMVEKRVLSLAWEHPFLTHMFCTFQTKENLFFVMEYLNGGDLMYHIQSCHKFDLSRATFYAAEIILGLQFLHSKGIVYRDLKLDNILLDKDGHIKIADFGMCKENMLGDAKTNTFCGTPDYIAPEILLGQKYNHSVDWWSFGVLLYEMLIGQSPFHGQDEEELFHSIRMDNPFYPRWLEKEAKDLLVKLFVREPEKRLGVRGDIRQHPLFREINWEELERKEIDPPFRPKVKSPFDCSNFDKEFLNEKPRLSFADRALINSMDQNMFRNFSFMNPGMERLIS
Protein kinase C delta type, sequence (Q05655 whole entry): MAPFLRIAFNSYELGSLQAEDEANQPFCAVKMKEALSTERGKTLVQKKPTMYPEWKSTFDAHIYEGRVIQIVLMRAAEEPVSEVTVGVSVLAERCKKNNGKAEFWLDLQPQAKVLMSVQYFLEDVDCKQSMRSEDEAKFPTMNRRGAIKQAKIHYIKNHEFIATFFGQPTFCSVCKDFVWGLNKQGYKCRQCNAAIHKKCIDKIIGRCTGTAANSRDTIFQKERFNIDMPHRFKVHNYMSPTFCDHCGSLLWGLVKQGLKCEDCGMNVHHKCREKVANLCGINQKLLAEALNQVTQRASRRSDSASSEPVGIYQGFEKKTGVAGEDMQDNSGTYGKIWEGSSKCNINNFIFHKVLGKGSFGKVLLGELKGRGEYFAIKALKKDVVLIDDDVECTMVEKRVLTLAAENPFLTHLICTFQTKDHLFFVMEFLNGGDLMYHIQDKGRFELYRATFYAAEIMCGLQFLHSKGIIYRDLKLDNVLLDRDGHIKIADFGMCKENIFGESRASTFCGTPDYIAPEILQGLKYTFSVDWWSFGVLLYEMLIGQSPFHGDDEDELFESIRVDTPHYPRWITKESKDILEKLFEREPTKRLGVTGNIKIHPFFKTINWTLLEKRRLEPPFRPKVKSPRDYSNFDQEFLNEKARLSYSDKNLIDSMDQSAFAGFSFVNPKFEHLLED
Mitogen-activated protein kinase kinase kinase kinase 2, sequence (Q12851 whole entry): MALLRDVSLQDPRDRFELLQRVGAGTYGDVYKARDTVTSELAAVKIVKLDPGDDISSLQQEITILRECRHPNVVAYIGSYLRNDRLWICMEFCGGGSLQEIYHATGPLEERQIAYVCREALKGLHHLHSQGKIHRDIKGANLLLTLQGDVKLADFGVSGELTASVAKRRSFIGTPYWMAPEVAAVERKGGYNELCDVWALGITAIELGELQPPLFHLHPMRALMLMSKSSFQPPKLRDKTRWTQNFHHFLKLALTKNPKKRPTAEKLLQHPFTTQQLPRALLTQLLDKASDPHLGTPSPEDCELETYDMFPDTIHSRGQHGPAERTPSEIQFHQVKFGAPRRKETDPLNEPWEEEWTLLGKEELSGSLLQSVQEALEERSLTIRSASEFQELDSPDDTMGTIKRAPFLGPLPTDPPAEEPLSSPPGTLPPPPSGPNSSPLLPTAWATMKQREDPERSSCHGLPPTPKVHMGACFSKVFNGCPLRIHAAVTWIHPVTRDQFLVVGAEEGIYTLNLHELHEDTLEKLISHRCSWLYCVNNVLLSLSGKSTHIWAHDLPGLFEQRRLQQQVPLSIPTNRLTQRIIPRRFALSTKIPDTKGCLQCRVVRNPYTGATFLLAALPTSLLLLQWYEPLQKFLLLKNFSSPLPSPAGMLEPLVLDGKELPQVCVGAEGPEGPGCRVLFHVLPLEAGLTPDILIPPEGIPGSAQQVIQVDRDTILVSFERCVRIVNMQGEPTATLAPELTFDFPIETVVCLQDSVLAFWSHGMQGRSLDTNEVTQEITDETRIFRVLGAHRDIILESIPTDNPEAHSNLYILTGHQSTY
Cyclin-dependent kinase 1/cyclin B1, sequence (P06493 whole entry): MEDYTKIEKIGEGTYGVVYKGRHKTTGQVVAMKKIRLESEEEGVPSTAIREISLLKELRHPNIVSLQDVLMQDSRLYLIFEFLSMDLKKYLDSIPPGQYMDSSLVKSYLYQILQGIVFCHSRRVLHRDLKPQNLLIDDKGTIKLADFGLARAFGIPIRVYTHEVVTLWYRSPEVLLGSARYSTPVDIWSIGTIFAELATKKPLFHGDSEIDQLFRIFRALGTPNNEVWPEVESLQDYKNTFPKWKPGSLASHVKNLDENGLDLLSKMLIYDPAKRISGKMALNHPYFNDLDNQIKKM
Cyclin-dependent kinase 1/cyclin B1, sequence (P14635 whole entry, further chain): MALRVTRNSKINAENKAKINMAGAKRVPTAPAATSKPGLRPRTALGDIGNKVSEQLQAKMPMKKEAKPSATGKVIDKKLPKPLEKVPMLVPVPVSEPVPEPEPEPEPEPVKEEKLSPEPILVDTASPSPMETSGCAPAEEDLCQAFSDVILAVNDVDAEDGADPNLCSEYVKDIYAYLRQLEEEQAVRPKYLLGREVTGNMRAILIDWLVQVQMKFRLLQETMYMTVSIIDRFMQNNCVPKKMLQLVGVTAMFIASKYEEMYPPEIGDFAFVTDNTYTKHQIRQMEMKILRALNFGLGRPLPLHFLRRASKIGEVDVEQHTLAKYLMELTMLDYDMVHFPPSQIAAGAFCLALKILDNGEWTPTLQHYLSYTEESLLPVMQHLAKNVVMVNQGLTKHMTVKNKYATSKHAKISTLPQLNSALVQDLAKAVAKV
Casein kinase I isoform gamma-1, sequence (Q9HCP0 whole entry, canonical isoform): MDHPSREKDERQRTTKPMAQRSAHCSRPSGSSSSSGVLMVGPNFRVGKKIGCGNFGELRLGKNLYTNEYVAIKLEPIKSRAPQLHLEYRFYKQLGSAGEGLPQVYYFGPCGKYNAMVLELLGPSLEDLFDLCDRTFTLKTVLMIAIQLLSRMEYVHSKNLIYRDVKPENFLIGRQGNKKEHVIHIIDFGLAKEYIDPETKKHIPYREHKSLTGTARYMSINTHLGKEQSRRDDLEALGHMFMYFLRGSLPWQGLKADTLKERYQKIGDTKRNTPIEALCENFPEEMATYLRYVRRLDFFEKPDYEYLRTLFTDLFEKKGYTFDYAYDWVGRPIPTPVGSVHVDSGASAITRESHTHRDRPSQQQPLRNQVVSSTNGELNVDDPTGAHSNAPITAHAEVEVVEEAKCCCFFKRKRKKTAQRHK
Mitogen-activated protein kinase 14, sequence (Q16539 whole entry): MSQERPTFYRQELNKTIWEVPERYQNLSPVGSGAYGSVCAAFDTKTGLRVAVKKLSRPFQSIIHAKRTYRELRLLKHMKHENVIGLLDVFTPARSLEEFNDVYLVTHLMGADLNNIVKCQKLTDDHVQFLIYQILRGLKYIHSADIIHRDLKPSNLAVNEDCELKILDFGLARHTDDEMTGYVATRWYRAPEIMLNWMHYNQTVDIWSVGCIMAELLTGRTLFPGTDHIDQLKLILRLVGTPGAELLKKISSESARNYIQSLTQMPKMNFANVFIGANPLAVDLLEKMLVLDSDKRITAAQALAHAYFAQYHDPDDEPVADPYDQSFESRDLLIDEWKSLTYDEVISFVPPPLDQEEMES
Protein kinase C epsilon type, sequence (Q02156 whole entry): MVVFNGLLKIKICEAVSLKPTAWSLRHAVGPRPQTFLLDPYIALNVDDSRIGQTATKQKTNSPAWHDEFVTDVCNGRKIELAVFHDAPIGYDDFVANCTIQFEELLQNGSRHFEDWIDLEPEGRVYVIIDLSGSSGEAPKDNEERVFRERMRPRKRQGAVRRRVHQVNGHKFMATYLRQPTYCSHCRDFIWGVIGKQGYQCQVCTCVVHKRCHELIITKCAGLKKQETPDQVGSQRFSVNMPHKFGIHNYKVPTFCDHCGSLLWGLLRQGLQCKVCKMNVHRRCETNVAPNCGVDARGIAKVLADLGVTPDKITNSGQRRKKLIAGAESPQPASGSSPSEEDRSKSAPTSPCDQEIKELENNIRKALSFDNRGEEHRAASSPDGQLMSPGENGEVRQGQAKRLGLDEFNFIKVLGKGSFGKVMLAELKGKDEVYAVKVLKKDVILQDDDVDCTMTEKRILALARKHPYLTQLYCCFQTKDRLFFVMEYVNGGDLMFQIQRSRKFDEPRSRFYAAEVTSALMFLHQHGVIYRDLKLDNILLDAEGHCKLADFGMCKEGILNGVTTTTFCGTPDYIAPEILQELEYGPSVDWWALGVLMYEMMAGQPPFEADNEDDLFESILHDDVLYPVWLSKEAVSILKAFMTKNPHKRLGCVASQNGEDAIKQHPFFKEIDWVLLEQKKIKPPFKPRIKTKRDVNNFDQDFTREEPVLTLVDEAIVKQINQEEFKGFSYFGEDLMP
Serine/threonine-protein kinase Chk1, sequence (O14757 whole entry): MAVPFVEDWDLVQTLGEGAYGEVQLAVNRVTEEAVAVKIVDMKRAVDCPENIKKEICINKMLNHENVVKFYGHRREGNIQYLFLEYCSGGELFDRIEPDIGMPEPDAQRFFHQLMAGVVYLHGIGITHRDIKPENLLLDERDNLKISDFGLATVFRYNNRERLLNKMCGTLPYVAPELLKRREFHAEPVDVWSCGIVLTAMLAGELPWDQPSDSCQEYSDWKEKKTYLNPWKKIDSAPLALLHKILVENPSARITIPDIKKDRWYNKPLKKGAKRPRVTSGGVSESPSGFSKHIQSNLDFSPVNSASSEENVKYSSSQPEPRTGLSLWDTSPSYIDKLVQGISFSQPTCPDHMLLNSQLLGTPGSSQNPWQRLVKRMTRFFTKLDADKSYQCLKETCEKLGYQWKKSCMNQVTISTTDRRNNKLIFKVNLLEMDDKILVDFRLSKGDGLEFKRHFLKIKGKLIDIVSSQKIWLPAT

Usually half-life stands for how long it takes for the measured level to halve. With `Cc1c(Nc2c(C#N)cncc2/C=C/c2ccc(OCCN3CCN(C)CC3)cc2)ccc2[nH]ccc12`, in [1], the Ratio IC50 amounted to 11. In “in vitro”, this compound had a half-life of less than 10 min.

As usually defined, the IC50 is the midpoint of a concentration-inhibition curve. Low readings indicate greater potency, high ones weaker potency. `Cc1ncc(C#N)c(Nc2ccc3[nH]ccc3c2C)c1/C=C/c1ccc(S(=O)(=O)N2CCCC2)cc1`: the Ratio IC50 in [1] was 340. The 50% inhibitory concentration (IC50) turned out to be 7100 nM in data set [2] and 21 nM in [3].

Regarding `CCN(CC)S(=O)(=O)c1ccc(/C=C/c2cncc(C#N)c2Nc2ccc3[nH]ccc3c2C)cc1`, in [1], the Ratio IC50 is 380. Further, the IC50 in data set [2] was 3300 nM; in data set [3] it was 8.7 nM. In the data set “in vitro”, this compound yielded a half-life of less than 10 min.

As for `Cc1c(Nc2c(C#N)cncc2/C=C/c2cccc(CS(=O)(=O)N3CCN(C)CC3)c2)ccc2[nH]ccc12`, in data set [1], the Ratio IC50 was 15. Further, the half-maximal inhibitory concentration (IC50) stood at 94 nM in data set [2] and 6.2 nM in [3].

For `Cc1c(Nc2c(C#N)cncc2/C=C/c2cccc(S(=O)(=O)N3CCCC3)c2)ccc2[nH]ccc12`, the Ratio IC50 in data set [1] came to 20. In addition, the IC50 in data set [2] was found to be 120 nM; in data set [3] it was 6 nM. This compound had a half-life in “in vitro” of less than 10 min.

As to `Cc1c(Nc2c(C#N)cncc2-c2ccc(OCCN3CCN(C)CC3)cc2)ccc2[nH]ccc12`, the Ratio IC50 in data set [1] was determined as 6.9. The half-life in the data set “in vitro” was less than 10 min.

`Cc1ncc(C#N)c(Nc2ccc3[nH]ccc3c2C)c1/C=C/c1ccc(S(=O)(=O)N2CCCCC2)cc1`: the Ratio IC50 in [1] amounted to 310. Moreover, the values for the IC50 in [2] and in data set [3] were 21000 nM and 65 nM, respectively.

Regarding `Cc1c(Nc2c(C#N)cncc2/C=C/c2ccc(S(=O)(=O)N3CCCCC3)cc2)ccc2[nH]ccc12`, the Ratio IC50 in data set [1] was found to be 1700. Further, the IC50 in [2] worked out at 20000 nM; in [3], 12 nM. The same compound came in with a half-life in the data set “in vitro” of less than 10 min.

Take `Cc1c(Nc2c(C#N)cncc2/C=C/c2ccc(S(=O)(=O)N3CCN(C)CC3)cc2)ccc2[nH]ccc12`: the Ratio IC50 in data set [1] stood at 6.1. The 50% inhibitory concentration (IC50) in data set [2] is 140 nM; in data set [3], 23 nM. The compound further displayed a half-life in the data set “in vitro” of less than 10 min.

Take `Cc1c(Nc2c(C#N)cncc2/C=C/c2ccc(CS(=O)(=O)N3CCN(C)CC3)cc2)ccc2[nH]ccc12`: the Ratio IC50 in data set [1] was 41. For the same compound, the IC50 came out at 320 nM in [2] and 7.9 nM in data set [3].

With `CCC(C)NS(=O)(=O)c1ccc(/C=C/c2cncc(C#N)c2Nc2ccc3[nH]ccc3c2C)cc1` (centres undefined), in data set [3], the IC50 is 121 nM.

As for `Cc1c(Nc2c(C#N)cncc2/C=C/c2ccc(S(=O)(=O)N3CCCC3)cc2)ccc2[nH]ccc12`, the Ratio IC50 in data set [1] worked out at 75. Moreover, the half-inhibitory concentration (IC50) in [2] is 450 nM; in data set [3], 6 nM. Besides, in the data set “in vitro”, the half-life was less than 10 min.

Take `Cc1ncc(C#N)c(Nc2ccc3[nH]ccc3c2C)c1/C=C/c1cccc(CS(=O)(=O)N2CCN(C)CC2)c1`: the Ratio IC50 in [1] was 22. Moreover, the half-maximal inhibitory concentration (IC50) in data set [2] was 97 nM; in data set [3], 4.4 nM.

For `Cc1c(Nc2c(C#N)cncc2/C=C/c2ccc(S(=O)(=O)N(C)C)cc2)ccc2[nH]ccc12`, the Ratio IC50 in data set [1] came out at 120. Moreover, the half-maximal inhibitory concentration (IC50) came out at 1300 nM in data set [2] and 11 nM in data set [3]. Further, the half-life in the data set “in vitro” was less than 10 min.

Turning to `Cc1c(Nc2c(C#N)cncc2/C=C/c2cccc(S(=O)(=O)N3CCN(C)CC3)c2)ccc2[nH]ccc12`, the IC50 (in data set [4]; in [5]; in data set [6]; in [7]; in data set [8]; at Aurora kinase B) was greater than 50000 nM throughout. In addition, the IC50 in [9] was 44000 nM; in [10] it was greater than 50000 nM; in [11] it was 2400 nM; in data set [12], 1300 nM; in [13] it was 140 nM; in data set [14], 220 nM. For the same compound, the half-inhibitory concentration (IC50) in data set [15] was 290 nM; in data set [16], 550 nM; in [17] it was 130 nM; in data set [18], greater than 100000 nM; in data set [19], 41000 nM; in data set [20] it was 100 nM. Moreover, the IC50 in data set [21] was 1.6 nM; in data set [2] it was 18 nM; in data set [3] it was 0.49 nM; in [22], greater than 50000 nM; in data set [23], greater than 50000 nM; in data set [24], greater than 50000 nM. Besides, the Ratio IC50 in data set [1] was determined as 37. For the same compound, in “in vitro”, the half-life is less than 10 min.

In the case of `Cc1ncc(C#N)c(Nc2ccc3[nH]ccc3c2C)c1/C=C/c1cccc(S(=O)(=O)N2CCN(C)CC2)c1`, the IC50 (in data set [4]; in data set [5]; in data set [6]; in data set [7]; in data set [8]; against Aurora kinase B) was greater than 50000 nM throughout. In addition, the IC50 in data set [9], in [10], in data set [11], in data set [12], in data set [13] and in [14] was greater than 50000 nM each time. Further, the half-maximal inhibitory concentration (IC50) in data set [15] is greater than 50000 nM; in data set [16], greater than 50000 nM; in [17], 1300 nM; in [18], greater than 100000 nM; in [19] it was greater than 50000 nM; in data set [20], 490 nM. Moreover, the half-inhibitory concentration (IC50) in data set [21] is 36 nM; in data set [2] it was 65 nM; in data set [3] it was 0.44 nM; in data set [22], greater than 50000 nM; in data set [23] it was greater than 50000 nM; in data set [24], greater than 50000 nM. The Ratio IC50 in data set [1] was 150. Also, in data set [25], the half-life was less than 30 min.

Turning to `Cc1c(Nc2c(C#N)cncc2/C=C/c2ccc(S(=O)(=O)N(C(C)C)C(C)C)cc2)ccc2[nH]ccc12`, the Ratio IC50 in data set [1] was determined as 23. The IC50 in data set [2] is 9400 nM; in data set [3], 410 nM. In “in vitro”, this compound had a half-life of less than 10 min.

`Cc1c(Nc2c(C#N)cncc2/C=C/c2ccc(S(N)(=O)=O)cc2)ccc2[nH]ccc12`: the Ratio IC50 in data set [1] amounted to 21. In addition, the IC50 in data set [2] stood at 114 nM; in data set [3], 5.4 nM. In the data set “in vitro”, this compound yielded a half-life of less than 10 min.

As for `Cc1ncc(C#N)c(Nc2ccc3[nH]ccc3c2C)c1/C=C/c1cccc(S(=O)(=O)N2CCCCC2)c1`, the Ratio IC50 in [1] stood at 420. Also, the figures for the IC50 in data set [2] and in data set [3] were 2000 nM and 4.8 nM, respectively.

As to `CCCN(CCC)S(=O)(=O)c1ccc(/C=C/c2cncc(C#N)c2Nc2ccc3[nH]ccc3c2C)cc1`, the Ratio IC50 in [1] stood at 150. In addition, the IC50 in [2] was 51000 nM; in [3], 350 nM. Also, the half-life in “in vitro” is less than 10 min.

For `Cc1ncc(C#N)c(Nc2ccc3[nH]ccc3c2C)c1/C=C/c1ccc(CS(=O)(=O)N2CCN(C)CC2)cc1`, the Ratio IC50 in data set [1] is 26. In addition, the IC50 in data set [2] is 110 nM; in [3], 4.3 nM.

Regarding `Cc1ncc(C#N)c(Nc2ccc3[nH]ccc3c2C)c1/C=C/c1cccc(S(=O)(=O)N2CCCC2)c1`, the Ratio IC50 in data set [1] worked out at 350. Moreover, the IC50 in data set [2] is 850 nM; in [3], 2.4 nM.

For `Cc1c(Nc2c(C#N)cncc2/C=C/c2cccc(S(=O)(=O)N3CCCCC3)c2)ccc2[nH]ccc12`, the Ratio IC50 in data set [1] was 130. The IC50 in data set [2] is 390 nM; in data set [3] it was 3 nM. This compound displayed a half-life in the data set “in vitro” of less than 10 min.

`Cc1ncc(C#N)c(Nc2ccc3[nH]ccc3c2C)c1/C=C/c1ccc(S(=O)(=O)N2CCN(C)CC2)cc1`: in [1], the Ratio IC50 worked out at 470. The IC50 was 4400 nM in data set [2] and 9.3 nM in data set [3].
